The values that follow come from ChEMBL document CHEMBL1157539, “Thousands of chemical starting points for antimalarial lead identification” (Nature, 2010).

Molecules are shown by their SMILES. Non-standard residues stand in square brackets, D forms with d. Residues, ends and D or L forms follow the SMILES beside them. *: point of attachment. Butanoyl(4-(4-HOPh)) = O=C(CCCc1ccc(O)cc1)*; Boc = CC(C)(C)OC(=O)*

For this assay, the system named is Plasmodium falciparum. The assay is described as follows: GSK_TCMDC: Inhibition of Plasmodium falciparum 3D7 in whole erythrocytes, using parasite LDH activity as an index of growth. The conditions noted are these: Plasmodium falciparum, 3D7. Type of assay: functional, organism-based.
For `O=[N+]([O-])c1ccc(Nc2nc(N/N=C/c3ccc(-c4ccc([N+](=O)[O-])cc4)o3)nc(Nc3ccccc3)n2)cc1`, the XC50 was 640 nM.

In turn, `COC(=O)CCCCOc1cc(Cc2cnc(N)nc2N)cc(OC)c1OC` returned an XC50 of 173 nM.

In the case of `O=C(Cn1c(CCc2cccc(F)c2F)nc(=O)c2ccccc21)N(Cc1ccc(-c2ccc(C(F)(F)F)cc2)cc1)C1CCN(C2CCOCC2)CC1`, the XC50 was 745 nM.

In turn, `COc1ccc(NC(=O)CCNc2ccnc(NCCc3ccc(F)cc3)n2)cc1` had an XC50 of 990 nM.

Compound `Cc1cc(NC(=O)CCCN2CCN(c3cccc(Cl)c3Cl)CC2)ccc1N1CCN(C(C)C)CC1` gave an XC50 of 757 nM.

For `CC(C)C(C(=O)n1ncc2c3c(N)nc(N)nc3ccc21)C(C)C`, the XC50 amounted to 648 nM.

`COc1cc(NC(=O)C(c2ccc(Cl)cc2)C(C)C)cc(OC)c1OC` (stereo not given) returned an XC50 of 534 nM.

The compound `COc1ccc(CC2(CO)CCN(Cc3ccc(O)c(Cl)c3)CC2)cc1` had an XC50 of 859 nM.

On to `COc1cc2nc(N3CCC(CNC(=O)c4ccc(C(C)=O)cc4)CC3)nc(N)c2cc1OC`, for which the XC50 came to 1120 nM.

For `CC(CN1CCN(C)CC1)C(=O)Nc1ccc(-c2csc(-c3nc4ccccc4[nH]3)c2)cc1` (stereo not given), the XC50 was 837 nM.

On to `CCOC(=O)CC[C@@H](NC(=O)c1ccc(NCc2ccc3ccc4nc(C)[nH]c(=O)c4c3c2)cc1F)C(=O)N[C@@H](Cc1c[nH]c2ccccc12)C(=O)OCC`, for which the XC50 is 1030 nM.

For the compound `Cc1cccc2c(C(=O)NC3CCN(Cc4ccccc4)CC3)cc(-c3cccnc3)nc12`, the XC50 amounted to 1380 nM.

As to `CCCc1ccc(Nc2nc(C)cc(N(CC)CCCN3CCCCC3)n2)cc1`, the XC50 worked out at 543 nM.

The compound `O=C(NCCCCN1CCC(c2ccc3c(c2OCC(O)c2ccc(Cl)cc2)CCCC3)CC1)c1ccc(-c2ccc(C(F)(F)F)cc2)cc1` (stereo not given) came in with an XC50 of 1040 nM.

`Nc1nccc2ccc(-c3ccncc3)cc12` came in with an XC50 of 249 nM.

`Cc1ccc(-c2nnc3c4ccccc4c(C)nn23)cc1S(=O)(=O)N1CCN(CCO)CC1` came in with an XC50 of 669 nM.

`O=C(Nc1ccc(CN2CCOCC2)cc1)c1ccc(-c2ccc(Cl)cc2)o1`: the XC50 came to 862 nM.

Consider `CCCc1cc(Cc2cnc(N)nc2N)cc(CC)c1OC`, for which the XC50 worked out at 821 nM.

Take `Clc1ccc2c(NCc3ccccn3)ccnc2c1`: the XC50 was 664 nM.

For `Clc1ccc(-c2cnc3ccc(NCCc4cccnc4)nn23)cc1`, the XC50 was 857 nM.

In turn, `CC(C)C1C(=O)N(S(C)(=O)=O)C2CCN(C(=O)c3ccc(CN4CCCCC4)c([N+](=O)[O-])c3)C12` (stereo not given) registered an XC50 of 620 nM.

Take `COc1ccc(CNC2CCN(C)CC2)cc1-c1ccc(S(=O)(=O)NCc2ccccc2)cc1`: the XC50 turned out to be 604 nM.

Compound `CCC(C)NS(=O)(=O)c1ccc2nc(Nc3cccc(SC)c3)n(C(C)C(C)C)c2c1` (stereo not given) registered an XC50 of 503 nM.

`C=Cc1cc(NC(=O)N2CCc3cc(OC)c(C(F)(F)F)cc32)cc(-c2cccnc2)c1` showed an XC50 of 702 nM.

The compound `O=[N+]([O-])c1ccc2ncnc(Nc3ccc(F)c(Cl)c3)c2c1` yielded an XC50 of 709 nM.

Compound `Cc1cc(C)c(O)c(-c2cc(C(=O)Nc3ccc(S(=O)(=O)N4CC(C)OC(C)C4)cc3)[nH]n2)c1` (stereo not given) had an XC50 of 664 nM.

As to `Cc1cc(N[C@@H](Cc2ccccc2)C(=O)NC2CCCC2)nc(NCCc2ccc(F)cc2)n1`, the XC50 is 803 nM.

The compound `CC1CCc2sc(-c3nnc(SC(C)C(=O)NC4CC4)o3)cc2C1` (stereo not given) yielded an XC50 of 1210 nM.

For `O=C(Cc1ccc[n+]([O-])c1)Nc1cccc(-c2cccc(-c3nc4cc(C(F)(F)F)ccc4[nH]3)c2)c1`, the XC50 was determined as 784 nM.

As for `N#CC(c1cccc(Cl)c1)c1ccc2c(C(F)(F)F)cc(C(F)(F)F)nc2n1` (stereo not given), the XC50 came out at 727 nM.

`CC[C@H]1CN2CC[C@H]1C[C@H]2[C@H](OC(=O)c1ccccc1)c1cc(C#N)nc2ccc(OC)cc12` registered an XC50 of 915 nM.

The compound `CNCCNCc1cccc(-c2ccc(-c3nc4cccc(C)c4[nH]3)s2)c1` displayed an XC50 of 953 nM.

As to `CC(=O)Nc1ccc(OCCN(Cc2ccccc2C(F)(F)F)c2ccc(C#N)c(C(F)(F)F)c2)c(Cl)c1`, the XC50 is 619 nM.

`COC(=O)c1cccc(CNCc2cccc(-c3ccc(-c4nc5cccc(C)c5[nH]4)s3)c2)c1` yielded an XC50 of 211 nM.

Consider `Cc1cc(C(=O)Nc2ccc3c(c2)CCN3C2CCN(Cc3ccc4nsnc4c3)C2)no1` (stereo not given), for which the XC50 turned out to be 641 nM.

`O=C(Nc1ccc(Br)cc1)Nc1ccc(Cn2ncc(N3CCCNCC3)c(Cl)c2=O)cc1` returned an XC50 of 1140 nM.

`Cc1ccc(CN2CCN(CC(O)COc3ccc4c(c3)CCC4)CC2)cc1` (stereo not given) yielded an XC50 of 863 nM.

For `O=C(/C=C/c1cc(C(F)(F)F)ccc1F)NC1CCC(CN2CCC(c3c[nH]c4ccccc34)CC2)CC1` (stereo not given), the XC50 came to 818 nM.

The compound `CCCCNc1c(CC)c(C)c(C#N)c2nc3ccccc3n12` had an XC50 of 385 nM.

In the case of `CC(C)(C)c1ccc(CNC(=O)/C=C/c2ccc(CNC3CCNCC3)cc2)cc1`, the XC50 amounted to 1090 nM.

`COCCNCc1ccc(-c2cccc(CNC3CCN(Cc4ccccc4)CC3)c2)cc1` had an XC50 of 333 nM.

`Cc1cccc2nc(-c3ccc(-c4cccc(NC(=O)Nc5ccsc5)c4)cc3)[nH]c12` yielded an XC50 of 799 nM.

The compound `N=C(N)c1ccc(Nc2nccc(Nc3nc(-c4ccccc4)cs3)n2)cc1` registered an XC50 of 754 nM.

As for `Cc1ccc(Nc2nc(NN=Cc3ccc(-c4ccc([N+](=O)[O-])cc4)o3)nc(N3CCOCC3)n2)cc1Cl`, the XC50 stood at 652 nM.

In turn, `CS(=O)(=O)c1cccc(-c2cnc3[nH]cc(-c4ccc(C(=O)O)cc4)c3c2)c1` registered an XC50 of 335 nM.

The compound `O=C(N[C@@H](CC1CCCCC1)C(=O)NCCN1CCCCC1)c1ccc(O)c(-c2ccc(Cl)c(Cl)c2)c1` returned an XC50 of 148 nM.

Compound `Cc1cccc2nc(-c3cccc(-c4cccc(NC(=O)COc5ccccc5C(N)=O)c4)c3)[nH]c12` showed an XC50 of 161 nM.

`CCCCN1CCCN(Cc2cccc(NC(=O)c3ccc(-c4ccccc4)cc3)c2)CC1` returned an XC50 of 1030 nM.

`CC1(C)N=C(N)N=C(N)N1c1cccc(Cl)c1` showed an XC50 of 37.9 nM.

`COc1ccc2[nH]ccc(=NN=Cc3ccc(N(C)C)cc3)c2c1` gave an XC50 of 799 nM.

In turn, `COc1ccc(Cl)cc1N1CCN(CCCNC(=O)c2ccc(-c3nc4cc(Cl)c(Cl)cc4[nH]3)c(C)c2)CC1` registered an XC50 of 866 nM.

On to `COCCNCc1cccc(-c2ccc3nccc(Nc4cc(O)ccc4C)c3c2)c1`, for which the XC50 stood at 749 nM.

`CC(C)N(Cc1cnc2nc(N)nc(N)c2n1)c1ccc(Cl)c(Cl)c1`: the XC50 is 158 nM.

In turn, `CC(C)(CNC(=O)[C@H]1CCCCN1)c1nc(-c2ccc(Cl)c(O)c2)c(-c2ccncc2)[nH]1` showed an XC50 of 727 nM.

With `Cc1nc(-c2ccc(-c3ccc(C(=O)Nc4ccc(Cl)c(N5CCN(C)CC5)c4)cc3)c(C)c2)no1`, the XC50 turned out to be 743 nM.

The compound `COc1ccc(-c2cccc(NC(=O)c3ccc(Cl)cc3)c2)cc1CN1CCCN(C)CC1` registered an XC50 of 387 nM.

Turning to `Cc1c(-c2cccc(Br)c2)[nH]c2nc(N)nc(N)c12`, the XC50 stood at 743 nM.

`O=C(Nc1nc2cc(S(=O)(=O)NCCc3ccc(F)cc3)ccc2n1CCCn1ccnc1)c1ccc(Cl)cc1` gave an XC50 of 1110 nM.

Compound `COc1cc(C(C)C)ccc1C1CCN(CCCCNC(=O)c2ccc(NC(=O)c3ccc(Cl)cc3)cc2)CC1` showed an XC50 of 449 nM.

Compound `O=C(c1ccc(F)c2ccccc12)N1CCc2cc3nccc(N4CCN5CCC[C@H]5C4)c3cc21` returned an XC50 of 1000 nM.

`COc1cc2nc(N(C)Cc3cc4c(Cl)cccc4s3)nc(N)c2cc1OC` gave an XC50 of 953 nM.

`O=C(Nc1cccc(CN2CCCN(Cc3ccc(O)cc3)CC2)c1)c1ccc2ccccc2c1`: the XC50 is 373 nM.

Turning to `CNCCCn1c(N(C)C)nc2cc(-n3cnc4cc(-c5ccc(Cl)cc5)sc4c3=O)ccc21`, the XC50 came out at 1140 nM.

`O=C(Nc1cccc(-c2ccc(-c3nc4ccccc4[nH]3)cc2)c1)c1csnn1`: the XC50 worked out at 1070 nM.

In turn, `Cc1ccc(C(=O)Nc2cccc(CN3CCCN(Cc4ccc(O)cc4)CC3)c2)cc1` gave an XC50 of 1090 nM.

In turn, `COc1ccc2[nH]ccc(=NN=Cc3cccnc3)c2c1` had an XC50 of 501 nM.

With `O=C(Nc1ccc(Cl)cc1)Nc1cccc(CCNCc2ccccc2)c1`, the XC50 stood at 728 nM.

Compound `C=CCCCNCC(NCCCNc1cc(=O)c2ccccc2[nH]1)c1cc(Br)cc(Br)c1` (stereo not given) returned an XC50 of 893 nM.

On to `O=C(Nc1ccc(-c2cncc(NCCCN3CCCC3)c2)cc1)c1ccccc1`, for which the XC50 amounted to 939 nM.

`COc1ccc(N2C(=O)c3c(c4ccccc4n3C)C2c2ccccc2O)cc1` (stereo not given): the XC50 came out at 117 nM.

Take `CN1CCN(c2nc(NCCNc3ccc([N+](=O)[O-])cc3)c3ccccc3n2)CC1`: the XC50 is 1320 nM.

Compound `CCCCCCCCNCc1c(O)ccc2ccccc12` displayed an XC50 of 739 nM.

In turn, `Cc1cccc(Nc2nc(N[C@@H]3CCCNC3)nc3cc[nH]c(=O)c23)c1` gave an XC50 of 683 nM.

`COc1ccc(C2c3cc(OC)c(OC)cc3C(=NO)C2C)cc1OC` (stereo not given) yielded an XC50 of 1170 nM.

For the compound `NOCCCCOc1ccc(Cl)cc1`, the XC50 is 785 nM.

`CC(C)Oc1cc2c(cc1NS(=O)(=O)c1ccc(-c3cccs3)cc1)CCN(C)CC2` came in with an XC50 of 961 nM.

`O=C(Nc1ccc(Cl)cc1Cl)NC1CCN(CCCCCNC(=O)C2CC2c2ccc(Cl)c(Cl)c2)CC1` (stereo not given) showed an XC50 of 367 nM.

On to `Fc1ccc(CNc2nc(-c3ccc(F)c(C(F)(F)F)c3)n(-c3cccc(C(F)(F)F)c3)n2)cc1`, for which the XC50 is 563 nM.

Compound `COC(=O)c1cccc(CNCc2cccc(-c3ccc(-c4nc5ccccc5[nH]4)cc3)c2)c1` displayed an XC50 of 354 nM.

For `CC(=O)Nc1ccc(CN(C)C2CCN(c3cc(NC(=O)c4cccc(C)c4)ccn3)CC2)cc1`, the XC50 is 904 nM.

`COC(=O)CC[C@H](NC(=O)[C@H](C)NC(=O)OC(C)(C)C)C(=O)OC` (Boc-Ala-Glu(OMe)-OMe) displayed an XC50 of 819 nM.

`O=C(NCC(=O)N1CCC[C@H]1C(=O)O)[C@@H](Cc1ccccc1)NC(=O)[C@@H]1CCCN1C(=O)CCCc1ccc(O)cc1` ({Butanoyl(4-(4-HOPh))}-P[dF]GP-OH) registered an XC50 of 1050 nM.

For `NC12CC3CC(CC(C3)C1)C2` [AMANTADINE], the XC50 is 164 nM.

`COc1ccc(C[C@H]2NC[C@H](O)[C@H]2OC(C)=O)cc1` [ANISOMYCIN] showed an XC50 of 138 nM.

`CO/C=C(/C(=O)OC)c1ccccc1Oc1cc(Oc2ccccc2C#N)ncn1` [AZOXYSTROBIN] displayed an XC50 of 40.5 nM.
